Test results as given in US20230279482A1, “COMPOSITIONS, METHODS AND USES FOR QUANTIFYING TRANSCRIPTION AND BIOSENSING OF SMALL MOLECULES USING A NOVEL TYPE VI CRISPR-CAS ASSAY” (THE REGENTS OF THE UNIVERSITY OF COLORADO, A BODY CORPORATE, priority 2020, published 2023).

Experiments:
[1] = test system: transcription and Cas13 reaction; experiment: Effect of agents on fluorescent signal of one-batch and two-batch assays; assay type: biochemical; settings: FIGS. 6D-6F
Description: In another exemplary method, two-batch methods included, 30 μL in vitro transcription reactions carried out as described above but without addition of Cas13a, crRNA, labeled RNA oligos, RNase inhibitor. Then, the reaction was washed three times with 500 μL ddH2O using an centrifugal filter (0.5 ml, 10 kDa cutoff). After concentrating the solution to approximately 20 μL, aliquots of 6 μL were taken and added to a 24 μL of a SHERLOCK reaction (described below).
(§1) The SELEX method (previously described) has been used to select the P1 aptamer that binds to the neurotransmitter serotonin (i.e. 5-hydroxytryptamine) and this aptamer was incorporated into the expression platform pbuE′ to generate a riboswitch for serotonin.

[2] = test system: SPRINT assay without riboswitch (constitutively transcribed Cas13a target); experiment: SPRINT control screen with constitutive promoter template (PAINS identification); settings: constitutive promoter template, FIG. 9B
Description: The master mix was gently mixed by pipetting up and down and incubated at 37° C. for 15 minutes to allow binding of crRNA to Cas13a protein and the microwell plate was prepared by adding 3 μL of 10× ligand to the wells. The reaction was initiated by addition of rNTPs to the master mix to a concentration of 20 μM and then 27 μL of the complete master mix were added to each well and pipetted up and down to mix with the ligand in the wells. The plate was covered with an optical adhesive film to prevent evaporation of the sample while taking fluorescence measurements in a plate reader that was preheated to 37° C.

[3] = test system: guanine riboswitch xpt/pbuE*6U; experiment: SPRINT compound screen on guanine riboswitch; assay type: biochemical; settings: 10 μM and 1 mM for most compounds, solvent signal subtracted, FIG. 9A
Description: Briefly, the transcriptional response of the guanine riboswitch xpt/pbuE*6U to 30 different compounds was measured at two different concentrations each (FIG. 9A and FIG. 10). The concentrations used were 10 μM and 1 mM for most compounds. The signal that was obtained from control experiments with the solvents DMSO or water was subtracted from all values.

[4] = test system: flavin mononucleotide (FMN) riboswitch ribD/pbuE*7U; experiment: SPRINT assay with FMN riboswitch; assay type: biochemical, B. subtilis; settings: 10 mM MgCl2, FIG. 4B
Description: (§2) SPRINT reactions. Pentauridine RNA oligonucleotides were labeled with carboxyfluorescein (FAM) or TEX 615 at the 5′-end and with Iowa Black FQ at the 3′-end. Fluorescence measurements were taken at wavelengths 490/525 nm (excitation/emission) when the FAM fluorophore was used. In reactions with flavin-containing ligands, TEX-labeled RNA oligos were used at the wavelengths 576/615 (excitation/emission). Fluorescence measurements were taken every 5 minutes.
(§3) For exemplary SPRINT assays, a master mix was first prepared and then mixed with the remaining reaction reagent components to yield a final reaction volume of 30 μL; fluorescent readings of the entire reaction volume were performed in Corning 384 Flat Bottom Black Polystyrol plates. This master mix (SPRINT buffer, 10×), for assays contemplated herein can include, but is not limited to: 700 mM Tris-HCl, pH 8.0, 700 mM NaCl, 1 mM EDTA, 140 mM β-mercaptoethanol, and 25 mM MgCl2. Aliquots of an exemplary 10× SPRINT buffer were stored at −20° C. and not allowed to undergo more than 10 freeze-thaw cycles.
Initially, the observed ligand-dependent induction of the FMN riboswitch was very low. To improve this, the magnesium concentration in the SPRINT reaction was increased. […] Therefore, SPRINT reactions with the ribD/pbuE*7U riboswitch were conducted at 10 mM MgCl2 in these exemplary studies.

[5] = target: T1, purine nucleoside phosphorylase (hPNP) (Homo sapiens, UniProt P00491); experiment: Enzyme-coupled SPRINT assay (inosine to hypoxanthine, guanine riboswitch xpt/pbuE*6U); assay type: biochemical
T1 sequence (P00491 1-289): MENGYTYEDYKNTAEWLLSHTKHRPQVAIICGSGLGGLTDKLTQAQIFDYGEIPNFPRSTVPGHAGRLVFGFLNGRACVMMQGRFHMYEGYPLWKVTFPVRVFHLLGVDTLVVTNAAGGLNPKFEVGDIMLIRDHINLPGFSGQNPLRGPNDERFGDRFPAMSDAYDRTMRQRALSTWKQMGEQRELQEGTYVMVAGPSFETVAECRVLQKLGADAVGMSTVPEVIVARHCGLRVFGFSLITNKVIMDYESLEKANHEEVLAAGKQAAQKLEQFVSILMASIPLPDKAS
Description: As part of the human purine metabolism, the enzyme purine nucleoside phosphorylase (hPNP) can catalyze the phosphorylation of the ribose moiety of various purines and thereby remove the sugar from the nucleobase. The conversion of deoxyguanosine to deoxyguanine by hPNP can be inhibited with nucleoside analogs such as Immucillin-H (forodesine) which leads to accumulation of deoxyguanosine and consequent apoptosis in activated T-cells. Therefore, hPNP is an important drug target for the treatment for example, of leukemia, arthritis, multiple sclerosis and transplant rejection.
In these systems, the conversion of inosine to hypoxanthine via hPNP was coupled to the SPRINT reaction in a one-batch buffer system using the guanine riboswitch xpt/pbuE*6U (FIG. 9D).

[6] = test system: S-adenosylmethionine (SAM)-responsive riboswitch yitJ/pbuE*6U; experiment: SPRINT assay with SAM riboswitch; assay type: biochemical; settings: FIG. 4A
Description: as §2, §3
In another exemplary method, to test the versatility of SPRINT, small-molecule dependent transcriptional regulation of various riboswitches was examined. […]

[7] = test system: metE riboswitch; experiment: SPRINT assay with native metE OFF riboswitch (with heparin, single turnover); assay type: biochemical, B. subtilis; settings: OFF switch, heparin added, FIG. 7B; read-out: T50 value (reduction of transcriptional rate)
Description: For amplification of the native metE riboswitch from the genome, the following protocol was used: Colony PCR was performed, using the oligos “metE_fwd” (SEQ ID NO: 13) and “metE_rev” (SEQ ID NO: 14) at Tm=64° C. with Q5 DNA polymerase. The constant 5′ and 3′ parts of the SPRINT constructs were also amplified via PCR reactions, using any plasmid with a complete SPRINT sequence as template. The 5′ constant part was amplified with oligos “InsulatorOligo_fwd” (SEQ ID NO:1) and “e.coliProm_rev” (SEQ ID NO: 8). The 3′ constant part was amplified with oligos “RiboswitchBB_fwd” (SEQ ID NO: 7) and “ssDNA1_rev” (SEQ ID NO: 2). […] The PCR product was purified, quantified and used for a SPRINT reaction.
In another exemplary method, certain riboswitches described herein were re-engineered for certain properties such as wide dynamic range and a ligand-induced “ON”. […] Initially, measurements at intermediate concentrations of SAM were difficult to quantify because the high rate of transcription from the B. subtilis metE OFF-switch required very high concentrations of SAM to repress the signal (FIG. 8). […]

[8] = test system: adenine riboswitch pbuE/pbuE‡; experiment: SPRINT assay with adenine riboswitch; assay type: biochemical; settings: FIG. 3D
Description: as §2
as §3, with “Aliquots of an exemplary 10× SPRINT buffer were stored at −20° C. and not allowed to undergo more than 10 freeze-thaw cycles.” left out
The transcriptional response of the well-characterized guanine riboswitch xpt/pbuE*6U and the adenine-responsive riboswitch pbuE/pbuE‡ to their respective ligand was measured by SPRINT and the radiolabeling method. The radiolabeling method used ^32P-labeled ATP for single turnover transcription assays, subsequent separation of the transcripts on an acrylamide gel, exposure to a phospho screen and quantification of the band intensities. […]

[9] = test system: FMN riboswitch ribB; settings: E. coli ribB; cited from earlier work
[10] = test system: FMN riboswitch; settings: cited from earlier work
[11] = test system: serotonin riboswitch (P1 aptamer in expression platform pbuE′); experiment: SPRINT assay with synthetic serotonin riboswitch; assay type: biochemical; settings: FIG. 4D
Description: as §2, §3, §1

[12] = target: zinc-responsive transcription factor smtB (Synechococcus elongatus, UniProt P30340); experiment: biochemical
Description: In other exemplary methods, reactions with allosteric transcription factors (aTFs), ROSALIND reagent buffer (10× buffer containing, for assays contemplated herein, but not limited to: 400 mM Tris-HCl, pH 8.0, 200 mM NaCl, 20 mM spermidine, 100 mM DTT and 80 mM MgCl2) were used. The buffer was prepared fresh or stored as single-use aliquots at −80° C. […] The final concentration of the aTF monomers was either 2.5 μM tetR or 10 μM smtB. The master mix was incubated for 15 minutes at 37° C. which allows the aTFs to bind to the operator sequence.
In another exemplary method, bacterial transcription can be regulated by allosteric transcription factors (aTFs), such as activators or repressors, which have previously been used for small molecule detection. Another system (“ROSALIND”) enabled rapid detection of compounds via aTFs. […] The ROSALIND buffer system differs from the SPRINT or SHERLOCK buffer. Therefore, it was tested whether aTF-based ROSALIND reactions could be integrated with the Cas13a-based detection method. To simplify the system, the inorganic pyrophosphatase (IPPase) enzyme was first removed from the ROSALIND system. IPPase was used in transcription reactions to degrade pyrophosphate which was a reaction product of the RNA polymerase and can inhibit the reaction. […] Adaptions included reducing the concentrations of rNTP from 2.85 mM to 40 μM, DNA template from 25 to 15 nM, and T7 RNAP from 10 to 6.7 ng/μL.
The responses of the de-repressors tetR and smtB were measured with SPRINT.

Sequence of zinc-responsive transcription factor smtB (P30340 whole entry): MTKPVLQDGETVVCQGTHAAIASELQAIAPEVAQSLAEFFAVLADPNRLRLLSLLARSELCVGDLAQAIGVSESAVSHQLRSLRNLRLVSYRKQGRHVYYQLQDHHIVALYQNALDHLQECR

**Q.** For `N[C@@H](Cc1c[nH]c2ccc(O)cc12)C(=O)O` [5-hydroxytryptophan], which “inhibitory effect on transcription and Cas13 reaction” value [1] is on record?
**A.** Its value is “did not cause inhibitory effects”.

**Q.** For `Nc1nc2c(c(=O)[nH]1)CC=N2` [7-deazaguanine], which “interference with SPRINT assay (PAINS)” value [2] is on record?
**A.** The value was “interfering compounds”.

**Q.** And the “transcriptional response at low and high concentration” value (“transcriptional response” for short) [3]?
**A.** The value was “some activation of transcription at low concentrations but no or reduced activation at high concentrations”.

**Q.** For `Cc1cc2nc3c(=O)[nH]c(=O)nc-3n(C[C@H](O)[C@H](O)[C@H](O)COP(=O)(O)O)c2cc1C` [FMN, flavin mononucleotide], which EC50 ([4]; read-out: T50 value (ligand concentration at half-maximal activation of transcription)) is on record?
**A.** The EC50 was ~1.01 µM.

**Q.** For `O=c1[nH]cnc2c([C@@H]3N[C@H](CO)[C@@H](O)[C@H]3O)c[nH]c12` [Immucillin-H], which “effect on hPNP enzymatic activity” value ([5]; inhibitor at 100-fold lower concentration than substrate inosine, FIG. 9E) is on record?
**A.** Its value is “significant reduction in the enzymatic activity”.

**Q.** For `CNc1nc2nc[nH]c2c(=O)[nH]1` [N2-methylguanine], which “interference with SPRINT assay (PAINS)” value [2] is on record?
**A.** The value was “interfering compounds”.

**Q.** And the “transcriptional response” value [3]?
**A.** Its value is “only caused a strong transcriptional response at high concentrations”.

**Q.** Which “transcriptional response” value [3] does the source give for `CNc1ncnc2nc[nH]c12` [N6-methyladenine] here?
**A.** The value was “did not cause a transcriptional response at low or high concentrations”.

**Q.** Which results are given for `C[S+](CC[C@H](N)C(=O)O)C[C@H]1O[C@@H](n2cnc3c(N)ncnc32)[C@H](O)[C@@H]1O` (some centres unmarked) [SAM, S-adenosylmethionine]?
**A.** response of SAM riboswitch to ligand [6]: responsive; EC50 [7]: ~1 µM

**Q.** With `Nc1ncnc2nc[nH]c12` [adenine] as the molecule, how does the “response of adenine riboswitch to ligand” value [8] read?
**A.** The value was “responded efficiently”.

**Q.** For `Cc1cc2nc3c(=O)[nH]c(=O)nc-3n(C[C@H](O)[C@H](O)[C@H](O)COP(=O)(O)OP(=O)(O)OC[C@H]3O[C@@H](n4cnc5c(N)ncnc54)[C@H](O)[C@@H]3O)c2cc1C` [flavin adenine dinucleotide (FAD), flavin adenine dinucleotide], which “response / activation of FMN riboswitch” value [4] is on record?
**A.** The value was “low-affinity response”.

**Q.** With `Nc1nc2nc[nH]c2c(=O)[nH]1` [guanine] as the molecule, how does the “transcriptional response” value [3] read?
**A.** Its value is “equally strong transcriptional activation at low and high concentrations”.

**Q.** What about the “response of adenine riboswitch to ligand” value [8] of the same molecule?
**A.** The value was “not”.

**Q.** With `OC[C@H]1O[C@@H](n2cnc3c(O)ncnc32)[C@H](O)[C@@H]1O` [inosine] as the molecule, how does the “hypoxanthine production by hPNP on titration” value ([5]; FIG. 9F) read?
**A.** Its value is “concentration-dependent increase”.

**Q.** With `O=c1cc(-c2cccs2)nc([C@H]2CCCN(Cc3cn(-c4ncccn4)cn3)C2)[nH]1` [ribocil-C] as the molecule, how does the “agonism of FMN riboswitch ribB” value [9] read?
**A.** The value was “strong agonist”.

**Q.** What about the “agonism of FMN riboswitch from F. nucleatum” value [10] of the same molecule?
**A.** Its value is “strong agonist”.

**Q.** What about the “response / activation of FMN riboswitch” value [4] of the same molecule?
**A.** Its value is “no observable activation”.

**Q.** For `NCCc1c[nH]c2ccc(O)cc12` [serotonin, 5-hydroxytryptamine], which “inhibitory effect on transcription and Cas13 reaction” value [1] is on record?
**A.** The value was “specifically inhibited the transcription and also Cas13 reaction”.

**Q.** What about the EC50 ([11]; read-out: T50 value) of the same molecule?
**A.** Its EC50 is 5 ± 3 µM.

**Q.** With `NCCc1c[nH]c2ccccc12` [tryptamine] as the molecule, how does the “discrimination by serotonin riboswitch” value [11] read?
**A.** The value was “discriminated specifically against”.

**Q.** For `[Zn+2]` [zinc], which EC50 [12] is on record?
**A.** Its EC50 is 4.8 ± 0.3 µM.

**Q.** And the “selectivity versus control copper” value ([12]; FIG. 7C)?
**A.** Its value is “high selectivity”.
